Source: US9156796B2, “Benzoimidazole-carboxylic acid amide derivatives as APJ receptor modulators” (SANOFI, priority 2013, dated 2015)

These compounds were tested against T1, human apelin receptor (Homo sapiens, UniProt P35414) (assay: Determination of agonism on the human apelin receptor by a calcium fluorescence assay (FLIPR)). Settings: HEK293 cells stably transfected with human apelin receptor and Giaq protein, Fluo-4 calcium fluorescence, read-out: EC50 (APJ agonism).
T1 construct: expressed in transfected cells
T1 sequence (P35414 1-380): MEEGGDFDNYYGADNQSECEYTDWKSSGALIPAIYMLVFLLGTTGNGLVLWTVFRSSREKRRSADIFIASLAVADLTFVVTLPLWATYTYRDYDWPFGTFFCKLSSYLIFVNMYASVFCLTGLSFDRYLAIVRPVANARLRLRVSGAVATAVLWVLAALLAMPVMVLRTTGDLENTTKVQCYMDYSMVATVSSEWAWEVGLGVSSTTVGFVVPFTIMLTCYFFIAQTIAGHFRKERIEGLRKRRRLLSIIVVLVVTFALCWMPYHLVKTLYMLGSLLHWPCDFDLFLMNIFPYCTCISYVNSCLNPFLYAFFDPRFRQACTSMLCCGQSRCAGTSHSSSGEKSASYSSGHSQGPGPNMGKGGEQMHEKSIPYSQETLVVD
Assay type: cell-based
Summary of the method: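 HEK293 cells stably co-expressing human apelin receptor and promiscuous Giaq, loaded 1 h at 37 °C with Fluo-4 (4 μM) in probenecid-containing Hepes buffer, pH 7.4. Compounds, at least 7 concentrations in triplicate, added in FLIPR Tetra; peak calcium fluorescence normalized to 1 μM apelin-13 as 100% to derive EC50.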

Row | SMILES | EC50 [nM]
1 | CCC(CC)n1c(Cc2cccs2)nc2cc(C(=O)N[C@@H](CC(C)C)C(=O)NCCCOC(C)C)ccc21 [Example 358, 1-(1-Ethyl-propyl)-2-thiophen-2-ylmethyl-1H-benzoimidazole-5-carboxylic acid [(S)-1-(3-isopropoxy-propylcarbamoyl)-3-methyl-butyl]-amide] | 2570
2 | CCOCCCNC(=O)[C@H](CC(C)C)NC(=O)c1ccc2c(c1)nc(Cc1cccs1)n2C(CC)CC [Example 359, 1-(1-Ethyl-propyl)-2-thiophen-2-ylmethyl-1H-benzoimidazole-5-carboxylic acid [(S)-1-(3-ethoxy-propylcarbamoyl)-3-methyl-butyl]-amide] | 2140
3 | CCC(CC)n1c(Cc2cccs2)nc2cc(C(=O)N[C@@H](CC(C)C)C(=O)NCCc3cccc(OC)c3)ccc21 [Example 360, 1-(1-Ethyl-propyl)-2-thiophen-2-ylmethyl-1H-benzoimidazole-5-carboxylic acid {(S)-1-[2-(3-methoxy-phenyl)-ethylcarbamoyl]-3-methyl-butyl}-amide] | 21200
4 | CCC(CC)n1c(Cc2cccs2)nc2cc(C(=O)N[C@@H](CC(C)C)C(=O)NCCc3ccc(OC)cc3)ccc21 [Example 361, 1-(1-Ethyl-propyl)-2-thiophen-2-ylmethyl-1H-benzoimidazole-5-carboxylic acid {(S)-1-[2-(4-methoxy-phenyl)-ethylcarbamoyl]-3-methyl-butyl}-amide] | 25000
5 | CCC(CC)n1c(Cc2cccs2)nc2cc(C(=O)N[C@@H](CC(C)C)C(=O)NCCc3ccccc3OC)ccc21 [Example 362, 1-(1-Ethyl-propyl)-2-thiophen-2-ylmethyl-1H-benzoimidazole-5-carboxylic acid {(S)-1-[2-(2-methoxy-phenyl)-ethylcarbamoyl]-3-methyl-butyl}-amide] | 27100
6 | CCC(CC)n1c(Cc2cccs2)nc2cc(C(=O)N[C@@H](CC(C)C)C(=O)N(CCOC)CCOC)ccc21 [Example 363, 1-(1-Ethyl-propyl)-2-thiophen-2-ylmethyl-1H-benzoimidazole-5-carboxylic acid {(S)-1-[bis-(2-methoxy-ethyl)-carbamoyl]-3-methyl-butyl}-amide] | 1720
7 | CCC(CC)n1c(Cc2cccs2)nc2cc(C(=O)N[C@@H](CC(C)C)C(=O)NCc3cccc(OC)c3)ccc21 [Example 364, 1-(1-Ethyl-propyl)-2-thiophen-2-ylmethyl-1H-benzoimidazole-5-carboxylic acid [(S)-1-(3-methoxy-benzylcarbamoyl)-3-methyl-butyl]-amide] | 13500
8 | CCC(CC)n1c(Cc2cccs2)nc2cc(C(=O)N[C@@H](CC(C)C)C(=O)N3CCC[C@@H]3COC)ccc21 [Example 365, 1-(1-Ethyl-propyl)-2-thiophen-2-ylmethyl-1H-benzoimidazole-5-carboxylic acid [(S)-1-((R)-2-methoxymethyl-pyrrolidine-1-carbonyl)-3-methyl-butyl]-amide] | 2750
9 | CCC(CC)n1c(Cc2cccs2)nc2cc(C(=O)N[C@@H](CC(C)C)C(=O)NCCOc3ccccc3)ccc21 [Example 366, 1-(1-Ethyl-propyl)-2-thiophen-2-ylmethyl-1H-benzoimidazole-5-carboxylic acid [(S)-3-methyl-1-(2-phenoxy-ethylcarbamoyl)-butyl]-amide] | 16500
10 | CCC(CC)n1c(Cc2cccs2)nc2cc(C(=O)N[C@@H](CC(C)C)C(=O)N[C@@H](C)COC)ccc21 [Example 370, 1-(1-Ethyl-propyl)-2-thiophen-2-ylmethyl-1H-benzoimidazole-5-carboxylic acid [(S)-1-((S)-2-methoxy-1-methyl-ethylcarbamoyl)-3-methyl-butyl]-amide] | 2850
11 | CCC(CC)n1c(Cc2cccs2)nc2cc(C(=O)N[C@@H](CC(C)C)C(=O)NCCOC(C)C)ccc21 [Example 371, 1-(1-Ethyl-propyl)-2-thiophen-2-ylmethyl-1H-benzoimidazole-5-carboxylic acid [(S)-1-(2-isopropoxy-ethylcarbamoyl)-3-methyl-butyl]-amide] | 3570
12 | CCC(CC)n1c(Cc2cccs2)nc2cc(C(=O)N[C@@H](CC(C)C)C(=O)N(C)Cc3ccc(OC)cc3)ccc21 [Example 372, 1-(1-Ethyl-propyl)-2-thiophen-2-ylmethyl-1H-benzoimidazole-5-carboxylic acid {(S)-1-[(4-methoxy-benzyl)-methyl-carbamoyl]-3-methyl-butyl}-amide] | 13200
13 | CCC(CC)n1c(Cc2cccs2)nc2cc(C(=O)N[C@@H](CC(C)C)C(=O)N3CCC(COC)CC3)ccc21 [Example 374, 1-(1-Ethyl-propyl)-2-thiophen-2-ylmethyl-1H-benzoimidazole-5-carboxylic acid [(S)-1-(4-methoxymethyl-piperidine-1-carbonyl)-3-methyl-butyl]-amide] | 2180
14 | CCC(CC)n1c(Cc2cccs2)nc2cc(C(=O)N[C@@H](CC(C)C)C(=O)N3CCC(OC(C)C)CC3)ccc21 [Example 375, 1-(1-Ethyl-propyl)-2-thiophen-2-ylmethyl-1H-benzoimidazole-5-carboxylic acid [(S)-1-(4-isopropoxy-piperidine-1-carbonyl)-3-methyl-butyl]-amide] | 2880
15 | CCC(CC)n1c(Cc2cccs2)nc2cc(C(=O)N[C@@H](CC(C)C)C(=O)N3CCCC(COC)C3)ccc21 (stereo partly drawn) [Example 378, 1-(1-Ethyl-propyl)-2-thiophen-2-ylmethyl-1H-benzoimidazole-5-carboxylic acid [(S)-1-(3-methoxymethyl-piperidine-1-carbonyl)-3-methyl-butyl]-amide] | 2440

The next lines start with the values.

Row | EC50 [nM] | SMILES
16 | 389 | CCC(CC)n1c(Cc2cccs2)nc2cc(C(=O)N[C@@H](CC(C)C)C(=O)N(C)C)ccc21 [Example 357, 1-(1-Ethyl-propyl)-2-thiophen-2-ylmethyl-1H-benzoimidazole-5-carboxylic acid ((S)-1-dimethyl-carbamoyl-3-methyl-butyl)-amide]
17 | 1660 | CCC(CC)n1c(Cc2cccs2)nc2cc(C(=O)N[C@@H](CC(C)C)C(=O)NC[C@H]3CCCO3)ccc21 [Example 367, 1-(1-Ethyl-propyl)-2-thiophen-2-ylmethyl-1H-benzoimidazole-5-carboxylic acid ((S)-3-methyl-1-{[(R)-1-(tetrahydro-furan-2-yl)methyl]-carbamoyl}-butyl)-amide]
18 | 1880 | CCC(CC)n1c(Cc2cccs2)nc2cc(C(=O)N[C@@H](CC(C)C)C(=O)NC[C@@H]3CCCO3)ccc21 [Example 368, 1-(1-Ethyl-propyl)-2-thiophen-2-ylmethyl-1H-benzoimidazole-5-carboxylic acid ((S)-3-methyl-1-{[(S)-1-(tetrahydro-furan-2-yl)methyl]-carbamoyl}-butyl)-amide]
19 | 2210 | CCC(CC)n1c(Cc2cccs2)nc2cc(C(=O)N[C@@H](CC(C)C)C(=O)NCC3CCOCC3)ccc21 [Example 369, 1-(1-Ethyl-propyl)-2-thiophen-2-ylmethyl-1H-benzoimidazole-5-carboxylic acid {(S)-3-methyl-1-[(tetrahydro-pyran-4-ylmethyl)-carbamoyl]-butyl}-amide]
20 | 1840 | CCC(CC)n1c(Cc2cccs2)nc2cc(C(=O)N[C@@H](CC(C)C)C(=O)N3CCC(OC)CC3)ccc21 [Example 373, 1-(1-Ethyl-propyl)-2-thiophen-2-ylmethyl-1H-benzoimidazole-5-carboxylic acid [(S)-1-(4-methoxy-piperidine-1-carbonyl)-3-methyl-butyl]-amide]
21 | 1830 | CCC(CC)n1c(Cc2cccs2)nc2cc(C(=O)N[C@@H](CC(C)C)C(=O)N3CCCC(OC)C3)ccc21 (stereo partly drawn) [Example 376, 1-(1-Ethyl-propyl)-2-thiophen-2-ylmethyl-1H-benzoimidazole-5-carboxylic acid [(S)-1-(3-methoxy-piperidine-1-carbonyl)-3-methyl-butyl]-amide]
22 | 1140 | CCC(CC)n1c(Cc2cccs2)nc2cc(C(=O)N[C@@H](CC(C)C)C(=O)N(C)C3CCOCC3)ccc21 [Example 377, 1-(1-Ethyl-propyl)-2-thiophen-2-ylmethyl-1H-benzoimidazole-5-carboxylic acid {(S)-3-methyl-1-[methyl-(tetrahydro-pyran-4-yl)-carbamoyl]-butyl}-amide]
23 | 1800 | CCC(CC)n1c(Cc2cccs2)nc2cc(C(=O)N[C@@H](CC(C)C)C(=O)N3CCCC3)ccc21 [Example 379, 1-(1-Ethyl-propyl)-2-thiophen-2-ylmethyl-1H-benzoimidazole-5-carboxylic acid [(S)-3-methyl-1-(pyrrolidine-1-carbonyl)-butyl]-amide]
24 | 586 | CCC(CC)n1c(Cc2cccs2)nc2cc(C(=O)N[C@@H](CC(C)C)C(=O)N(C)CCOC)ccc21 [Example 380, 1-(1-Ethyl-propyl)-2-thiophen-2-ylmethyl-1H-benzoimidazole-5-carboxylic acid {(S)-1-[(2-methoxy-ethyl)-methyl-carbamoyl]-3-methyl-butyl}-amide]
25 | 970 | CCC(CC)n1c(Cc2cccs2)nc2cc(C(=O)N[C@@H](CC(C)C)C(=O)NC)ccc21 [Example 381, 1-(1-Ethyl-propyl)-2-thiophen-2-ylmethyl-1H-benzoimidazole-5-carboxylic acid ((S)-3-methyl-1-methylcarbamoyl-butyl)-amide]
